Data: patent publication US20040033982A1, “Viral inhibition by n-docosanol” (priority 2001, published 2004)

Assays:
Vero cells = assay: Cellular uptake, distribution and metabolism of radiolabeled n-docosanol; type: in vitro ADME, African Green monkey
Procedure: FIG. 10 depicts data showing that radioactive metabolites of n-[^14C]docosanol display the properties of phosphatidylcholine and phosphatidylethanolamine. A portion (0.5 ml) of the methanol eluate of the silica lipid fractionation was evaporated under nitrogen, resuspended in 20 μl chloroform:methanol (3:2; v:v) and spotted on a silica thin layer chromatography (TLC) sheet. After development with chloroform:methanol:acetic acid:water (60:50:1:4; v:v:v:v), the positions of standards were determined by staining with iodine vapors and the cpm per fraction determined by scintillation spectrometry after cutting the plastic-backed sheet into 5 mm strips.
FIG. 11 depicts data showing that n-[^14C]-Docosanol is metabolized more by Vero cells than by MDBK cells. Vero or MDBK cells were plated as described. n-[^14C]-docosanol was added to […] (0.24 mM Tetronic 908) and the cultures were incubated 72 hours at 37° C./CO2. Cells were extracted and analyzed on TLC with hexane:diethyl ether:acetic acid (20:30:1; v:vv) as the developing solvent. With this solvent system the polar phosphatides remain at the origin. The position of migration of n-[^14C]-docosanol is indicated. Duplicate plates were treated with an identical suspension lacking the radioactive label, and the numbers of cells in these duplicate plates were determined by counting cells excluding trypan blue with a hemocytometer.
In order to better define the precise mechanism by which n-docosanol exerts its antiviral activity, the cellular uptake, distribution, and metabolism of n-docosanol from surfactant-stabilized suspensions has been studied. The results of such studies have provided some interesting insight into the metabolic basis of the compound's antiviral action. It has been shown that radioactively labeled n-docosanol is progressively incorporated into cultured Vero cells, reaching a peak uptake per cell between 6 and 12 hours after exposure. The process is irreversible, since once the compound is cell-associated it cannot be removed even with extensive washing with cesium bromide, which effectively removes nonspecifically associated cell-bound particles.
Nonmetabolized n-docosanol was previously eluted from the silica with chloroform. As shown, approximately 62% of the counts migrated in the region of phosphatidylcholine and 38% migrated in the region of phosphatidylethanolamine.
Of the counts that are metabolized in two cells lines, the relative amounts in the major classes of phosphatides that are formed, phosphatidylcholine and phosphatidylethanolamine, are not different in the two cell lines.

HSV-2 = HSV-2 internalization into Vero cells (citrate buffer wash); type: cell-based
Procedure: FIG. 9 depicts data showing that HSV-2 remains on the surface of n-docosanol treated Vero cells for prolonged times. Vero cells were cultured as described in the legend to FIG. 7 and incubated overnight. The cultures were then chilled to 4° C., inoculated with 100 PFU of HSV-2, and incubated 3 hours at 4° C. At time zero the cultures were washed with medium, inoculated with fresh medium (containing the indicated inhibitor) and incubated at 37° C. At each indicated time period, the cultures were washed with citrate buffer (pH 2.5) and reinoculated with fresh medium (lacking inhibitor). After a total of 44 hours incubation the cultures were stained and scored for HSV-2-induced plaques. The data are expressed as geometric means and standard errors derived from triplicate cultures per group.
In this experiment, HSV-2 was incubated with Vero cells in the absence or presence of n-docosanol at 4° C. to allow for receptor binding of the virus. At the end of 3 hours, all cultures were washed and then replated at 37° C. in order to initiate the viral entry process. At 20 minute intervals thereafter, the various cultures were exposed to pH 3.0 citrate buffer, conditions which remove and inactivate surface-bound, but not internalized, HSV virions, and then re-cultured the full 44 hour period required to develop optimal HSV plaques.

HSV = assay: Inhibition of HSV replication, Tetronic versus Pluronic suspension; type: cell-based
Description: An initial step in conducting such studies involved switching to a different surfactant or suspending n-docosanol. Tetronic 908 is closely related to Pluronic F68; both are block copolymers of ethylene oxide and propylene oxide. However, whereas Pluronic is a bifunctionaI polymer with a molecular weight of 8,400, Tetronic 908 is a tetrfunctional copolymer, produced by adding propylene oxide and ethylene oxide to ethylenediamine and resulting in a molecule with an average molecular weight of 25,000. […] This appears to relate to the 3-fold higher levels of metabolic conversion in cells treated with n-docosanol in Tetronic.

wild-type HSV-2 = assay: Plaque formation by wild-type HSV-2 in Vero cells; type: cell-based; settings: FIG. 7, Panel A
Procedure: FIG. 7 depicts data showing that n-docosanol inhibits acyclovir-resistant HSV-2. Vero cells were cultured in 35-mm wells (6×10^5 cells per well) in medium alone (=none) or in the presence of the indicated concentration of acyclovir, n-docosanol-Pluronic F-68 suspension or control suspension (Pluronic F-68 only). The cultures were inoculated 24 hours later with 150 PFU of either wild-type HSV-2 or an acyclovir-resistant laboratory isolate from the wild-type HSV-2 that was plaque purified and passaged in 20 μg/ml acyclovir 44 hours later, the plates were incubated, fixed, stained, and scored for numbers of plaques. The data presented are means of plaques scored from duplicate cultures. The percent inhibition observed in cultures treated with acyclovir or n-docosanol relative to untreated control cultures is denoted in parentheses.

Water solubility = type: physicochemical
[1] = saturating concentrations, within 24 hours

With `CCCCCCCCCCCCCCCCCCCCCCO` [n-docosanol] the “total uptake and relative metabolic conversion, Vero versus MDBK cells” value (Vero cells) was 3-4 times higher, the “radioactive compound associated with nuclear fractions” value (Vero cells; after 12 hours of exposure) was “less than 1%” and the “radioactive compound contained in cell membranes” value (Vero cells; after 12 hours of exposure) was 75%. For the same compound, the “molecules of n-docosanol added to culture that enter the cell” value (Vero cells; radiolabeled n-docosanol) was “less than 1 out of 1000”, the cell-associated amount (Vero cells; [1]) was ~8×10^9 molecules per cell and the “fraction of total n-docosanol added that becomes cell-associated” value (Vero cells; [1]) was “less than 1%”. For the same compound, the “time for internalization to reach completion” value (HSV-2) was “more than 1 hour”, the “internalization of HSV complete” value (HSV-2; 20 minutes after the shift to 37° C.) was “less than 40%” and the “ED50 for inhibition of HSV replication relative to Tetronic” value (HSV; suspended in Pluronic) was “approximately 3 times higher”. The “ED50 for inhibition of HSV replication” value (HSV; suspended in Tetronic) was 5 to 10 mM, the “inhibition of plaque formation” value (wild-type HSV-2) was “inhibit plaque formation by wild type HSV-2 equally” and the water solubility (Water solubility) was “water-insoluble”.
